{
  "source": "patent US20060205826A1",
  "about": "“Method of using carotenoids in the prevention of cognitive decline and for other neuroprotection functions” (priority 2005, published 2006)",
  "key": {"diabetic mouse brain": {"system": "diabetic mouse brain", "details": "diabetic mice killed 20 days after streptozotocin administration; Saravia et al. 2004; cited from earlier work"}, "diabetic rats": {"system": "diabetic rats", "details": "Lupien et al. (2003); cited from earlier work"}, "diabetic rodents": {"system": "diabetic rodents", "details": "insulin treatment from the onset of diabetes, Biessels et al 1998; cited from earlier work"}, "GPx activity": {"system": "GPx activity", "assay": "GPx activity in eye and hippocampus homogenate of diabetic mice", "format": "in vivo", "method": "(§1) Male albino mice were used throughout the study, housed in a environmentally regulated room on a dark-light cycle of 12 hours with free access to food and water. Principles of laboratory animal care (NIH publication no. 85-23, revised 1985) were followed, as well as specific Spanish regulations. Animals were made diabetic with a single subcutaneous injection of 200 mg alloxan/kg body weight (66 mg/ml) in 0.1 M citrate buffer, pH 4.5, at day 0 of the experiment. Control mice were injected with the same volume of vehicle also at day 0 of the experiment. Mice were identified as diabetic on the basis of blood glucose levels (higher than 16 mM at least 4 days after alloxan treatment). Animals were divided into subgroups as required by the experiment (control, control+lutein, diabetic, diabetic+lutein, diabetic+insulin, diabetic+insulin+lutein). […] Insulin treated animals were injected daily with 500 mU/g body weight since day 4 until the end of the experiment. Mice were killed by cervical dislocation on day 14, and hippocampus and retina were removed and homogenized in pre-chilled 0.2 M potassium phosphate buffer, pH 7.0. These homogenates were used to assay protein, GPx activity and MDA and GSH concentrations. Samples were kept frozen (−80° C.) until biochemical assays were performed. Blood was taken from the tail vein daily to assay blood glucose levels. Glycated hemoglobin was determined in blood samples obtained by heart puncture immediately before killing the animals. GPx activity was assayed as reported by Lawrence et al. (1978) towards hydrogen peroxide. The disappearance of NADPH was followed spectrophotometrically at 340 nm. The reaction mixture consisted of 240 mU/ml of glutathione disulfide reductase, 1 mM GSH, 0.15 mM NADPH in 0.1 M potassium phosphate buffer, pH 7.0, containing 1 mM EDTA and 1 mM sodium azide; 50 μl sample were added to this mixture and allowed to equilibrate at 37° C. for 3 min. reaction was started by the addition of 1.5 mM hydrogen peroxide to adjust the final volume of the assay mixture to 1 ml."}, "[1]": {"system": "MDA, a lipid peroxidation product", "assay": "MDA concentration by liquid chromatography in serum, eye and hippocampus of diabetic mice", "format": "in vivo", "method": "(§2) Male albino mice were used throughout the study, housed in a environmentally regulated room on a dark-light cycle of 12 hours with free access to food and water. Principles of laboratory animal care (NIH publication no. 85-23, revised 1985) were followed, as well as specific Spanish regulations. Animals were made diabetic with a single subcutaneous injection of 200 mg alloxan/kg body weight (66 mg/ml) in 0.1 M citrate buffer, pH 4.5, at day 0 of the experiment. Control mice were injected with the same volume of vehicle also at day 0 of the experiment.\nMice were identified as diabetic on the basis of blood glucose levels (higher than 16 mM at least 4 days after alloxan treatment). Animals were divided into subgroups as required by the experiment (control, control+lutein, diabetic, diabetic+lutein, diabetic+insulin, diabetic+insulin+lutein). […] Insulin treated animals were injected daily with 500 mU/g body weight since day 4 until the end of the experiment. Mice were killed by cervical dislocation on day 14, and hippocampus and retina were removed and homogenized in pre-chilled 0.2 M potassium phosphate buffer, pH 7.0. These homogenates were used to assay protein, GPx activity and MDA and GSH concentrations. Samples were kept frozen (−80° C.) until biochemical assays were performed. Blood was taken from the tail vein daily to assay blood glucose levels. Glycated hemoglobin was determined in blood samples obtained by heart puncture immediately before killing the animals.\nMDA, a lipid peroxidation product, concentration was measured by liquid chromatography according to a modification of the method of Richard et al. (1992) as previously described (Romero et al., 1998). Briefly, 0.1 ml of sample (or standard solutions prepared daily from 1,1,3,3-tetramethoxypropane) and 0.75 ml of working solution (thiobarbituric acid 0.37% and perchloric acid 6.4%; 2/1, v/v) were mixed and heated to 95° C. for 1 h. After cooling (10 min in ice water bath), the flocculent precipitate was removed by centrifugation at 3,200×g for 10 min. The supernatant was neutralized and filtered (0.22 μm) prior to injection on an ODS column 5 μm column (250×4.6 mm). Mobile phase consisted in 50 mM phosphate buffer (pH 6.0): methanol (58:42, v/v). Isocratic separation was performed with 1.0 ml/min flow (HPLC System 325, Kontron) and detection at 532 nm (UV/VIS HPLC Detector 332, Kontron). Calibration curves were run daily."}, "GSH": {"system": "GSH", "assay": "GSH content in hippocampus homogenate of diabetic mice", "format": "in vivo", "details": "lutein 0.2 mg/kg p.o. or insulin 500 mU/g s.c. on days 4-13", "method": "as §2\nMice were identified as diabetic on the basis of blood glucose levels (higher than 16 mM at least 4 days after alloxan treatment). Animals were divided into subgroups as required by the experiment (control, control+lutein, diabetic, diabetic+lutein, diabetic+insulin, diabetic+insulin+lutein). Lutein was administered daily at a dose of 0.2 mg/kg p.o since day 4 after alloxan or citrate buffer injection until the end of the experiment. […] Glycated hemoglobin was determined in blood samples obtained by heart puncture immediately before killing the animals.\nThe GSH content of eye homogenate was quatitated by the method of Reed et al. (Reed et al., 1980). […] These products are quickly separated by HPLC which allows the quantification of nanomolars levels of GSH."}, "alloxan diabetic mice": {"system": "alloxan diabetic mice", "assay": "Electroretinogram (ERG) amplitude in diabetic mice", "format": "in vivo", "details": "lutein 100 mg/kg p.o. or insulin 500 mU/g s.c. on days 4-13", "method": "as §1, with “Samples were kept frozen (−80° C.) until biochemical assays were performed. Blood was taken from the tail vein daily to assay blood glucose levels.” left out, “animals.” for “animals. GPx activity was assayed as reported by Lawrence et al. (1978) towards hydrogen peroxide. The disappearance of NADPH was followed spectrophotometrically at 340 nm. The reaction mixture consisted of 240 mU/ml of glutathione disulfide reductase, 1 mM GSH, 0.15 mM NADPH in 0.1 M potassium phosphate buffer, pH 7.0, containing 1 mM EDTA and 1 mM sodium azide; 50 μl sample were added to this mixture and allowed to equilibrate at 37° C. for 3 min. reaction was started by the addition of 1.5 mM hydrogen peroxide to adjust the final volume of the assay mixture to 1 ml.”"}, "[2]": {"details": "lutein 100 mg/kg p.o. or insulin 500 mU/g body weight s.c. on days 4-13"}},
  "note": "Entries after “also recorded” stand apart in the source; their conditions may differ.",
  "data": [
    {"compound": "C[C@]12CC[C@@H]3c4ccc(O)cc4CC[C@H]3[C@@H]1CC[C@@H]2O", "note": "[17beta-oestradiol]", "values": [
      {"measurement": "brain cell proliferation", "setting": "diabetic mouse brain", "value": "restored"}
    ]},
    {"compound": "IGF-I", "values": [
      {"measurement": "cognition-related performance in the water maze", "setting": "diabetic rats", "value": "prevent loss of cognition-related performance"}
    ]},
    {"compound": "insulin [reference compound]", "values": [
      {"measurement": "learning impairment in Morris water maze", "setting": "diabetic rodents", "value": "can prevent this learning impairment"},
      {"measurement": "retinal GPx activity", "setting": "GPx activity; eye homogenate without lens, lutein 100 mg/kg p.o. or insulin 500 mU/g s.c. on days 4-13", "value": "partially reversed"},
      {"measurement": "GPx activity in hippocampus homogenate", "setting": "GPx activity; lutein 0.2 mg/kg p.o. or insulin 500 mU/g s.c. on days 4-13", "value": "restored"},
      {"measurement": "MDA levels in hippocampus", "setting": "[1]; lutein 0.2 mg/kg p.o. or insulin 500 mU/g body weight s.c. on days 4-13", "value": "restored; also recorded: able to prevent this effect"},
      {"measurement": "MDA levels in ocular tissue", "setting": "[1]; [2]", "value": "restored; also recorded: able to prevent this effect"},
      {"measurement": "MDA levels in serum", "setting": "[1]; [2]", "value": "restored"},
      {"measurement": "GSH content in hippocampus homogenate", "setting": "GSH", "value": "restored"},
      {"measurement": "ERG amplitude (mostly b-wave)", "setting": "alloxan diabetic mice", "value": "partially reversed"}
    ]}
  ]
}
